Experimental data as given in publication PMC3565832 (mBio, 2013).

Test system: HSV-1
Test: HSV-1 IE gene expression in HeLa cells
Type: cell-based
Conditions: 50 µM, 5 h pretreatment, HSV-1 0.1 PFU/cell for 2 h

## C[C@H](NCc1ccc(OCc2cccc(F)c2)cc1)C(N)=O [Safinamide, safinamide]
  inhibition of expression of viral IE (ICP27 and ICP4) genes: did not show substantial inhibition
